In ChEMBL document CHEMBL5727813, “Inhibitors of lysine gingipain” (2020):

Assay: Inhibition of Lysine Gingipain: The capacities of compounds of the present invention to inhibit the activity of lysine gingipain were measured in a fluorogenic assay similar to those described in Barret Biochemical Journal. 1980, 187(3), 909. The specific assay conditions were as follows. Buffer: pH=7.5, 100 mM Tris-HCl, 75 mM NaCl, 2.5 mM CaCl2, 10 mM cysteine, 1% DMSO after all additions. Protein: 0.1 nM Kgp, isolated from culture of Porphyromonas gingivalis, as described in Pike et al. J. Biol. Chem. 1994, 269(1), 406, and Potempa and Nguyen. Current Protocols in Protein Scienc. 2007, 21.20.1-21.20.27. Fluorogenic substrate: 10 uM Z-His-Glu-Lys-MCA. Time=90 minutes. Temperature=37° C. Each compound: 10 concentrations, starting at either 100 uM or 100 nM, with lower concentrations generated by serial 3-fold dilutions. By testing a range of concentrations for each compound, the concentration required to inhibit the activity of lysine gingipain by 50% (the “IC50”) was determined. Under the described assay conditions, signal-to-noise was excellent, and Z factor was greater than 0.6.

SMILES: NCCCC[C@H](NC(=O)C1CCCC1)C(=O)c1ccccn1
- IC50: > 250 nM
